Drawing on PubChem BioAssay (NCI), this text covers GI50 and TGI for 8 compounds.

Among the test systems are MOLT-4 leukemia; 786-0 renal; NCI-H226 lung; SR leukemia; SK-MEL-28 melanoma; MDA-MB-231 breast; CCRF-CEM leukemia; HCT-15 colon; SF-539 CNS; M14 melanoma.
Common to all, as to assay: growth of human tumour cells (NCI), 48 h

Where “and” joins values, the source holds several entries; their conditions need not be identical. Equal values may be shown once.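 Each compound was tested at five concentrations against cells in 96-well plates for 48 hours. At the GI50, growth is halved. At the TGI there is no net growth.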 A value given as a limit tells only on which side of the number the result lay.

On to `CC(C)(C)C[C@H]1N[C@@H](C(=O)NC2CCC(O)CC2)[C@H](c2cccc(Cl)c2F)[C@@]12C(=O)Nc1cc(Cl)ccc12` (some centres not stated), for which the GI50 was 0.314 µM in the assay on MOLT-4 leukemia; 4.22 µM in the assay with 786-0 renal; 0.238 µM in the assay on NCI-H226 lung; 0.189 µM with SR leukemia; 3.28 µM with SK-MEL-28 melanoma; 1.82 µM in the assay on MDA-MB-231 breast. The GI50 in the assay on CCRF-CEM leukemia was 3.51 µM; with HCT-15 colon it was 3.92 µM; in the assay with SF-539 CNS, 3.12 µM; in the assay with M14 melanoma, 4.05 µM. Besides, the TGI worked out at 1.81 µM in the assay on MOLT-4 leukemia; 15.4 µM in the assay with 786-0 renal; 1.04 µM in the assay on NCI-H226 lung; 5.45 µM with SR leukemia; 11.7 µM in the assay with SK-MEL-28 melanoma; 4.41 µM with MDA-MB-231 breast. Moreover, the TGI was 15.4 µM with CCRF-CEM leukemia, 18.2 µM in the assay on HCT-15 colon, 11.5 µM with SF-539 CNS and 17.3 µM with M14 melanoma.

With `COc1ccc(-n2cc(-c3ccc(OC)c(OC)c3)[nH]c2=O)cc1`, the GI50 with MOLT-4 leukemia, in the assay with 786-0 renal, with NCI-H226 lung, in the assay with SR leukemia, in the assay on SK-MEL-28 melanoma and in the assay on MDA-MB-231 breast was > 100 µM in each case. Besides, the GI50 with CCRF-CEM leukemia, with HCT-15 colon and in the assay with M14 melanoma was > 100 µM each time. For the same compound, the TGI in the assay with MOLT-4 leukemia, in the assay with 786-0 renal, in the assay on NCI-H226 lung, in the assay on SR leukemia, with SK-MEL-28 melanoma and in the assay with MDA-MB-231 breast was > 100 µM throughout. Moreover, the TGI with CCRF-CEM leukemia, with HCT-15 colon and in the assay with M14 melanoma was > 100 µM throughout.

As for `CCCCCCCC(=O)OCC/C=C/C1OC1C1OC(=O)/C=C\C=C\C(=O)N(C(C)=O)C(=O)/C=C(/C)CCC2OC2C1OC(=O)NC(C)=O` (configuration not stated), the GI50 with MOLT-4 leukemia was 10.1 µM; in the assay on 786-0 renal, 4.12 µM; in the assay with NCI-H226 lung, 18.9 µM; in the assay with SR leukemia, 4.48 µM; in the assay on SK-MEL-28 melanoma, 5.12 µM; with MDA-MB-231 breast it was 10.5 µM. Also, the GI50 in the assay on CCRF-CEM leukemia is 0.734 µM; in the assay on HCT-15 colon it was 5.13 µM; with SF-539 CNS, 3.68 µM; with M14 melanoma it was 6.83 µM. In addition, the TGI in the assay on MOLT-4 leukemia is > 25 µM; with 786-0 renal, 11.1 µM; with NCI-H226 lung it was > 25 µM; with SR leukemia, > 25 µM; in the assay on SK-MEL-28 melanoma, 14.3 µM; in the assay on MDA-MB-231 breast, > 25 µM. The TGI in the assay on CCRF-CEM leukemia was > 25 µM; in the assay with HCT-15 colon, 18.4 µM; with SF-539 CNS, 7.36 µM; with M14 melanoma, > 25 µM.

For `[N-]=[N+]=CC(=O)CCC(N)C(=O)O` (configuration not stated), the GI50 with MOLT-4 leukemia was 0.468 µM; in the assay on 786-0 renal it was 7.17 µM; with SK-MEL-28 melanoma, 15.3 µM; in the assay on CCRF-CEM leukemia, 5.82 µM; in the assay with HCT-15 colon it was 2 µM; in the assay on SF-539 CNS, 6.31 µM. The GI50 in the assay with M14 melanoma is 10.6 µM. Further, the TGI with 786-0 renal was > 250 µM; in the assay on NCI-H226 lung, > 250 µM; in the assay with SR leukemia, > 231 µM; with SK-MEL-28 melanoma, 202 µM; with MDA-MB-231 breast, > 250 µM; in the assay with CCRF-CEM leukemia, 54.6 µM and 157 µM. For the same compound, the TGI in the assay with HCT-15 colon was > 222 µM; with SF-539 CNS it was 48.7 µM and > 250 µM; in the assay on M14 melanoma it was > 250 µM.

As to `O=c1[nH]c(C2CCCN2)nc2c1oc1ccc(Cl)cc12` (configuration not stated), the GI50 with MOLT-4 leukemia is > 100 µM; in the assay on 786-0 renal it was > 100 µM; with NCI-H226 lung, 18.6 µM; with SR leukemia, 61.1 µM; in the assay with SK-MEL-28 melanoma, > 100 µM; with MDA-MB-231 breast, > 100 µM. The GI50 with CCRF-CEM leukemia was 68.1 µM; in the assay with HCT-15 colon, > 100 µM; in the assay with SF-539 CNS, 36.9 µM; in the assay on M14 melanoma, 57.1 µM. The TGI with MOLT-4 leukemia, in the assay on 786-0 renal, in the assay on NCI-H226 lung, in the assay on SR leukemia, in the assay with SK-MEL-28 melanoma and with MDA-MB-231 breast was > 100 µM throughout. For the same compound, the TGI in the assay on CCRF-CEM leukemia, in the assay on HCT-15 colon, with SF-539 CNS and in the assay with M14 melanoma was > 100 µM each time.

Take `COc1cc(O)ccc1C(=S)SC`: the TGI is 92.2 µM in the assay on MOLT-4 leukemia; > 100 µM in the assay with 786-0 renal; 76.9 µM with NCI-H226 lung; > 100 µM with SR leukemia; > 100 µM in the assay with SK-MEL-28 melanoma; 88.4 µM with MDA-MB-231 breast. Also, the TGI with HCT-15 colon, in the assay on SF-539 CNS and with M14 melanoma was > 100 µM each time.

Consider `O=S(=O)(NC1=NCCN1C(=S)SN1CCn2c1nsc2=S)c1ccc(Cl)cc1`, for which the GI50 in the assay on MOLT-4 leukemia was 3.56 µM; in the assay with 786-0 renal, 16.6 µM; with NCI-H226 lung, 5.77 µM; in the assay on SR leukemia it was 2.4 µM; with SK-MEL-28 melanoma, 4.85 µM; in the assay with MDA-MB-231 breast, 4.06 µM. The figures for the GI50 with HCT-15 colon, with SF-539 CNS and in the assay with M14 melanoma were 11.9 µM, 1.47 µM and 12.9 µM, respectively. Also, the TGI is 21.7 µM in the assay with MOLT-4 leukemia; 32.4 µM in the assay with 786-0 renal; 20.7 µM with NCI-H226 lung; 6.51 µM in the assay on SR leukemia; 20.7 µM in the assay with SK-MEL-28 melanoma; 19.4 µM with MDA-MB-231 breast. The TGI with HCT-15 colon was found to be 28.2 µM; with SF-539 CNS, 3.12 µM; in the assay on M14 melanoma, 32.5 µM.

As to `COc1cc2c(cc1C)NC(=O)/C2=C/c1ccnc2ccccc12`, the GI50 in the assay on MOLT-4 leukemia is > 50 µM; in the assay with 786-0 renal it was 35.3 µM; in the assay on SR leukemia, 8.47 µM; in the assay with SK-MEL-28 melanoma it was 11.2 µM; with MDA-MB-231 breast it was 9.49 µM; with HCT-15 colon it was 20.5 µM. For the same compound, the GI50 is 20.8 µM with SF-539 CNS and > 50 µM with M14 melanoma. Besides, the TGI with MOLT-4 leukemia was > 50 µM; in the assay with 786-0 renal, > 50 µM; in the assay with SR leukemia, > 50 µM; in the assay with SK-MEL-28 melanoma it was 46.8 µM; in the assay with MDA-MB-231 breast it was 32.6 µM; in the assay with HCT-15 colon, > 50 µM. For the same compound, the TGI with SF-539 CNS and in the assay on M14 melanoma was > 50 µM throughout.
